Where only a bound is given, the exact number is not on record here.

For experiment [1], the target named is T1, Potassium-transporting ATPase (Rattus norvegicus) (UniProt P09626+P18598). As to the kind of experiment: Gastric antisecretory activity was tested in rats at 30 mg/kg, po expressed as the percentage of inhibition against the acid output of the control group. In kind it is functional, organism-based. Set-up: dose 30 mg/kg.
The target in experiment [2] is Potassium-transporting ATPase (Sus scrofa, UniProt P18434+P19156). The experiment in a line: Inhibition of H+/K+ ATPase from porcine gastric mucosal membrane vesicles. In kind it is tissue-based, Gastric mucosa.
Sequence of Potassium-transporting ATPase (Sus scrofa, UniProt P18434+P19156) (P18434 whole entry): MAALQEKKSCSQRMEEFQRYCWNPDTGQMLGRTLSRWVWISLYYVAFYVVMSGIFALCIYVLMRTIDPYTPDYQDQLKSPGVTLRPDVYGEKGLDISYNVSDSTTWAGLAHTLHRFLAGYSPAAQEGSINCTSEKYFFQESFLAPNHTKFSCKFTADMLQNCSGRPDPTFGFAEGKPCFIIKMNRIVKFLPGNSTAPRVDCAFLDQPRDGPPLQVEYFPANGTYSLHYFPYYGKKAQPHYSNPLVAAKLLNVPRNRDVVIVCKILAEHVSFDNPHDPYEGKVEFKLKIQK
Sequence of Potassium-transporting ATPase (Sus scrofa, UniProt P18434+P19156) (P19156 whole entry): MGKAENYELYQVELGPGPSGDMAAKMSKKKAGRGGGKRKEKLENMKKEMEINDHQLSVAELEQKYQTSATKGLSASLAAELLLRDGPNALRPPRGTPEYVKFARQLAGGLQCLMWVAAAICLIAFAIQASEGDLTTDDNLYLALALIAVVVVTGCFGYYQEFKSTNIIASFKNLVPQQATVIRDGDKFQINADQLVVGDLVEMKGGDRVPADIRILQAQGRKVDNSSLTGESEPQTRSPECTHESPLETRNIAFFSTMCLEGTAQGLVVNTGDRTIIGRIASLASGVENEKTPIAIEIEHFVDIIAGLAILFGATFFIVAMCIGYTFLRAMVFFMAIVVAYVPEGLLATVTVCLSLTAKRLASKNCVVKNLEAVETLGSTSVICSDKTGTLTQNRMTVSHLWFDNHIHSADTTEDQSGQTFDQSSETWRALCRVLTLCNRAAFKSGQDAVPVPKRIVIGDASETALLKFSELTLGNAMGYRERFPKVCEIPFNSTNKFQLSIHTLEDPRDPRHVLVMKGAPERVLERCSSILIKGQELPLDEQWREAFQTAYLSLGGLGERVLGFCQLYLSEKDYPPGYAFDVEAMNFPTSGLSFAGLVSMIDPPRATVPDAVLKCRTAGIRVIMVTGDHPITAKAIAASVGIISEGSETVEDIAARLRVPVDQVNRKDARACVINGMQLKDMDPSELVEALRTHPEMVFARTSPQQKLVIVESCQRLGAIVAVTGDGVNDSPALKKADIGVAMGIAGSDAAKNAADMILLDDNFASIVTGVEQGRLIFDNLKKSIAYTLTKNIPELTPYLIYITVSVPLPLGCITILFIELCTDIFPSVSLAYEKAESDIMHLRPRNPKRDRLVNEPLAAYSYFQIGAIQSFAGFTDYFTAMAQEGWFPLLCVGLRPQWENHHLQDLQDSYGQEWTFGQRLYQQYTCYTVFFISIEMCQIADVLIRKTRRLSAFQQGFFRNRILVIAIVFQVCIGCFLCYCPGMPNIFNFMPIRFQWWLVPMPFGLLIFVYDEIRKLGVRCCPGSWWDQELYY
Experiment [3] addresses T1, Potassium-transporting ATPase (Rattus norvegicus). As to the kind of experiment: Effect in vivo on gastric H+/K+ ATPase activity at 24 hrs following intraduodenal administration of 40 mg/Kg in rats injected intraperitoneally with 1 mg/Kg of cycloheximide. The conditions noted are these: Stomach. In kind it is functional, organism-based.
Experiment [4] has the same target. As to the kind of experiment: Effect in vivo on gastric H+/K+ ATPase activity at 48 hrs following intraduodenal administration of 40 mg/Kg in rats injected intraperitoneally with 1 mg/Kg of cycloheximide. Type of experiment: functional, organism-based. The conditions noted are these: Stomach.
Experiment [5] has the same target. The experiment in a line: Effect in vivo on gastric H+/K+ -ATPase activity at 6 hrs following intraduodenal administration of 40 mg/Kg in rats. Type of experiment: functional, organism-based. Particulars: Stomach; call rule not given here.
Experiment [6] has the same target. As to the kind of experiment: Effect in vivo on gastric H+/K+ -ATPase activity at 24 hrs following intraduodenal administration of 40 mg/Kg in rats. In kind it is functional, organism-based. The conditions noted are these: Stomach.
The target is the same in experiment [7]. As to the kind of experiment: Effect in vivo on gastric H+/K+ -ATPase activity at 3 hrs following intraduodenal administration of 40 mg/Kg in rats. In kind it is functional, organism-based. The conditions noted are these: Stomach.
Experiment [8] shares this target. As to the kind of experiment: Effect in vivo on gastric H+/K+ ATPase activity at 1.5 hrs following intraduodenal administration of 40 mg/Kg in rats. In kind it is functional, organism-based. Particulars: Stomach.
For experiment [9] the target is unchanged. As to the kind of experiment: Effect in vivo on gastric H+/K+ -ATPase activity at 48 hrs following intraduodenal administration of 40 mg/Kg in rats. In kind it is functional, organism-based. Particulars: Stomach.
Experiment [10] has the same target. The experiment in a line: Effect in vivo on gastric H+/K+ ATPase activity at 24 hrs following intraduodenal administration of 40 mg/Kg in rats. In kind it is functional, organism-based. Particulars: Stomach.
The target of experiment [11] is Potassium-transporting ATPase (Sus scrofa, UniProt P19156). The experiment in a line: In vitro inhibition against H+/K+ ATPase from porcine gastric mucosal membrane vesicles. In kind it is tissue-based, Gastric mucosa.
Sequence of Potassium-transporting ATPase (Sus scrofa, UniProt P19156) (P18434 whole entry): as the sequence (P18434 whole entry) above
Sequence of Potassium-transporting ATPase (Sus scrofa, UniProt P19156) (P19156 whole entry): as the sequence (P19156 whole entry) above
Experiment [12] concerns the target T1, Potassium-transporting ATPase (Rattus norvegicus). As to the kind of experiment: Effect in vivo on gastric H+/K+ ATPase activity at 10 hrs following intraduodenal administration of 40 mg/Kg in rats injected intraperitoneally with 1 mg/Kg of cycloheximide. Particulars: Stomach. In kind it is functional, organism-based.
Experiment [13] shares this target. The experiment in a line: Effect in vivo on gastric H+/K+ ATPase activity at 3 hrs following intraduodenal administration of 40 mg/Kg in rats. In kind it is functional, organism-based. The conditions noted are these: Stomach.
The target is the same in experiment [14]. The experiment in a line: Effect in vivo on gastric H+/K+ ATPase activity at 6 hrs following intraduodenal administration of 40 mg/Kg in rats. In kind it is functional, organism-based. The conditions noted are these: Stomach.
The target is the same in experiment [15]. The experiment in a line: Effect in vivo on gastric H+/K+ ATPase activity at 10 hrs following intraduodenal administration of 40 mg/Kg in rats. Type of experiment: functional, organism-based. The conditions noted are these: Stomach.

Broadly, the inhibition is the change of the read-out against control, counted positive when it falls. Low values mean little suppression, high ones strong suppression. As usually defined, the IC50 is the concentration needed to halve the response being measured. The low end stands for greater potency, the high end for weaker potency. Take `CN(C)c1ccccc1C[S+]([O-])c1ncc(-c2ccccc2)n1-c1ccccc1` (stereo not drawn): the inhibition in experiment [1] is 0%. The 50% inhibitory concentration (IC50) entry in [2] is given as “Not Active”.

On to `CCN(CC)c1ccccc1C[S+]([O-])c1nccn1-c1ncccc1OC` (stereo not drawn), for which the inhibition in experiment [1] is 94%. Moreover, the IC50 result in experiment [2] was “Not Active”.

In experiment [1], `CN(C)c1ccccc1C[S+]([O-])c1ncc(-c2ccccc2)n1Cc1ccccc1` (stereo not drawn) displayed an inhibition of 0%. Besides, the IC50 result in experiment [2] was “Not Active”.

For the compound `COc1ccc2[nH]c([S+]([O-])Cc3ncc(C)c(OC)c3C)nc2c1` (stereo not drawn), the Control in experiment [3] amounted to 36.1%; in experiment [4], 34.1%; in experiment [5] it was 27.8%; in experiment [6], 51.7%; in experiment [7], 37.1%; in experiment [8] it was 45.4%. Further, in experiment [9], the Control came to 71.1%. The same compound registered an inhibition in experiment [1] of 100%.

As to `CCN(CC)c1ccccc1C[S+]([O-])c1nc2c(n1Cc1ccccn1)CCC2` (stereo not drawn), in experiment [1], the inhibition worked out at 38%. Moreover, in experiment [2], the IC50 result was “Not Active”.

Turning to `[O-][S+](Cc1ccccc1N1CCOCC1)c1nc2c(n1-c1ccccn1)CCC2` (stereo not drawn), the inhibition in experiment [1] worked out at 80%. Further, the IC50 result in [2] is “Not Active”.

Regarding `CN(C)c1ccccc1C[S+]([O-])c1nccn1-c1ncccn1` (stereo not drawn), the inhibition in [1] is 30%. The IC50 result in [2] was “Not Active”.

Compound `CN(C)c1ccccc1C[S+]([O-])c1nc(-c2ccccc2)cn1Cc1ccccc1` (stereo not drawn) showed an inhibition in [1] of 0%. Further, the concentration for half-maximal inhibition (IC50) entry in experiment [2] is “Not Active”.

In turn, `CCN(CC)c1ccccc1C[S+]([O-])c1nc2c(n1-c1cccnc1)CCC2` (stereo not drawn) yielded an inhibition in experiment [1] of 0%. Besides, the IC50 result in experiment [2] is “Not Active”.

Turning to `Cc1cccnc1-n1c([S+]([O-])Cc2ccccc2N)nc2c1CCC2` (stereo not drawn), the Control came out at 95.4% in [3]; 88.9% in experiment [10]; 72.9% in experiment [12]; 46% in [13]; 48.8% in experiment [8]; 69.2% in [14]. Moreover, in experiment [15], the Control stood at 79.6%. In experiment [1], this compound registered an inhibition of 95%. Further, the IC50 in experiment [11] was above 100 µM.

Compound `[O-][S+](Cc1ccccc1-n1ccnc1)c1nccn1-c1ccccn1` (stereo not drawn) came in with an inhibition in [1] of 22%. Besides, the IC50 result in experiment [2] is listed as “Not Active”.

`Cc1cccnc1-n1ccnc1[S+]([O-])Cc1ccccc1N1CCCCC1` (stereo not drawn) came in with an inhibition in [1] of 82%. For the same compound, the IC50 result in [2] is “Not Active”.

As for `COc1cccnc1-n1ccnc1[S+]([O-])Cc1ccccc1-n1cccc1` (stereo not drawn), the inhibition in experiment [1] came out at 39%. Also, the IC50 entry in [2] is on record as “Not Active”.

As to `[O-][S+](Cc1ccccc1-n1cccc1)c1nccn1-c1ccccn1` (stereo not drawn), the inhibition in experiment [1] is 88%. In addition, the IC50 result in [2] is listed as “Not Active”.

The compound `Cc1cccnc1-n1ccnc1[S+]([O-])Cc1ccccc1-n1cccc1` (stereo not drawn) had an inhibition in experiment [1] of 47%. Besides, the IC50 entry in experiment [2] was “Not Active”.

(Values after ChEMBL document CHEMBL1129052, “2-[(2-Aminobenzyl)sulfinyl]-1-(2-pyridyl)-1,4,5,6-tetrahydrocyclopent[d]imidazoles as a novel class of gastric H+/K+-ATPase inhibitors” (J Med Chem, 1996).)
